Consider two compounds from publication PMC8143618, “Biochemical profiling of anti-HIV prodrug Elsulfavirine (Elpida®) and its active form VM1500A against a panel of twelve human carbonic anhydrase isoforms” (Journal of Enzyme Inhibition and Medicinal Chemistry, 2021).

In one data set the target is hCA VA (Homo sapiens, UniProt P35218). The experiment in a line: Stopped flow CO2 hydrase assay, hCA VA.
The target of another data set is hCA VB (Homo sapiens, UniProt Q9Y2D0). The experiment in a line: Stopped flow CO2 hydrase assay, hCA VB.
Another data set has as its target hCA XIV (Homo sapiens, UniProt Q9ULX7). Nature of the data set: Stopped flow CO2 hydrase assay, hCA XIV.
Details of data set [1]: method as in PMID 28940154. The settings on record: cited from earlier work.
A further data set deals with hCA IX (Homo sapiens, UniProt Q16790). The experiment in a line: Stopped flow CO2 hydrase assay, hCA IX.
In another data set the target is hCA VI (Homo sapiens, UniProt P23280). Nature of the data set: Stopped flow CO2 hydrase assay, hCA VI.
Another data set concerns the target hCA XII (Homo sapiens, UniProt O43570). The experiment in a line: Stopped flow CO2 hydrase assay, hCA XII.
For another data set, the target named is hCA VII (Homo sapiens, UniProt P43166). The experiment in a line: Stopped flow CO2 hydrase assay, hCA VII.
Another data set concerns the target hCA IV (Homo sapiens, UniProt P22748). The experiment in a line: Stopped flow CO2 hydrase assay, hCA IV.
For another data set, the target named is hCA II (Homo sapiens, UniProt P00918). The experiment in a line: Stopped flow CO2 hydrase assay, hCA II.
Another data set concerns the target hCA I (Homo sapiens, UniProt P00915). The experiment in a line: Stopped flow CO2 hydrase assay, hCA I.
The target of a further data set is hCA III (Homo sapiens, UniProt P07451). Nature of the data set: Stopped flow CO2 hydrase assay, hCA III.
The next data set has as its target hCA XIII (Homo sapiens, UniProt Q8N1Q1). The experiment in a line: Stopped flow CO2 hydrase assay, hCA XIII.
Another data set relates to HIV. The settings on record: compared to efavirenz, cited from earlier work.

Sequence of hCA IV (P22748 19-312): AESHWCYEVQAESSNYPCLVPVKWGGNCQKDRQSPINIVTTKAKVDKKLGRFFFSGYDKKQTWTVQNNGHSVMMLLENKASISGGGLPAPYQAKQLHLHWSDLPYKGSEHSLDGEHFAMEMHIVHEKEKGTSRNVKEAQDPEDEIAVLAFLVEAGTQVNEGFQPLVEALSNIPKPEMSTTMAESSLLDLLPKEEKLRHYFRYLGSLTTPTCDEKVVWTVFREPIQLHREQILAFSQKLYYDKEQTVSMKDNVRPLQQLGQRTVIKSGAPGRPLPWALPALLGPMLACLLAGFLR
Sequence of hCA VII (P43166 whole entry): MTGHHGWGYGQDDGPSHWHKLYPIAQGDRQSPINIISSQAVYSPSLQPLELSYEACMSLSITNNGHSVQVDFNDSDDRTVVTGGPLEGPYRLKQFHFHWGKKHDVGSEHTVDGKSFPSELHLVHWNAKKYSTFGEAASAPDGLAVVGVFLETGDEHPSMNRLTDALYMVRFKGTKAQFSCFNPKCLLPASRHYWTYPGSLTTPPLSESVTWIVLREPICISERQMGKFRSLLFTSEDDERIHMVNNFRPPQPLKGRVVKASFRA
Sequence of hCA III (P07451 whole entry): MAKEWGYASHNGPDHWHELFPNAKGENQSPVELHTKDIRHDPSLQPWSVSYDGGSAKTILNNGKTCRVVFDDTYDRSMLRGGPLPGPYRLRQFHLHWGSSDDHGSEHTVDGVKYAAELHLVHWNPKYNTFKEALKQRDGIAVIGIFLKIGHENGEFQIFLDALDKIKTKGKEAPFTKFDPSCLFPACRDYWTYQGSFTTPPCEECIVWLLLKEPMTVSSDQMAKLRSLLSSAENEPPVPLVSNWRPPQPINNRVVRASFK
Sequence of hCA XIII (Q8N1Q1 whole entry): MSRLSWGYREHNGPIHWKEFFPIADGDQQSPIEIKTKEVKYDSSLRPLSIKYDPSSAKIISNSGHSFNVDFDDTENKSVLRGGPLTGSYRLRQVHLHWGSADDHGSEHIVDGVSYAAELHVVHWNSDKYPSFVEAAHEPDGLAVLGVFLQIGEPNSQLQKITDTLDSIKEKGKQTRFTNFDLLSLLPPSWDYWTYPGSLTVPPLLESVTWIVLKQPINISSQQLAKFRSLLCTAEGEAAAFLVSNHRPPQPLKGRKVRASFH
Sequence of hCA I (P00915 whole entry): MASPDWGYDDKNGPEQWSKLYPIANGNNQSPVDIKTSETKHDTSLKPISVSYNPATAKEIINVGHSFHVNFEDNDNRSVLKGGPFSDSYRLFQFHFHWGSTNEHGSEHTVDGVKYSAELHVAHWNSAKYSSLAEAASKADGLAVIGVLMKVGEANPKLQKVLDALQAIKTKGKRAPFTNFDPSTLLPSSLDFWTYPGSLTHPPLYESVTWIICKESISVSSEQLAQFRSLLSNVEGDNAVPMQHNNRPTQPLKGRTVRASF
Sequence of hCA VB (Q9Y2D0 34-317): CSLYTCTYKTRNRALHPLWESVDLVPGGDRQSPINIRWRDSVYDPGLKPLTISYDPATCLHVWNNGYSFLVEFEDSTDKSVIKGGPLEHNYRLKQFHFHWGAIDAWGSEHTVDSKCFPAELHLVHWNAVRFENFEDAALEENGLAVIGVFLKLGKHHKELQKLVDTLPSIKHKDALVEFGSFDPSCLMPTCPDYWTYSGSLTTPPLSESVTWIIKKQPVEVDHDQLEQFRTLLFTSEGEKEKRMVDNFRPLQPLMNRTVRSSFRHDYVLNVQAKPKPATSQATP
Sequence of hCA VA (P35218 39-305): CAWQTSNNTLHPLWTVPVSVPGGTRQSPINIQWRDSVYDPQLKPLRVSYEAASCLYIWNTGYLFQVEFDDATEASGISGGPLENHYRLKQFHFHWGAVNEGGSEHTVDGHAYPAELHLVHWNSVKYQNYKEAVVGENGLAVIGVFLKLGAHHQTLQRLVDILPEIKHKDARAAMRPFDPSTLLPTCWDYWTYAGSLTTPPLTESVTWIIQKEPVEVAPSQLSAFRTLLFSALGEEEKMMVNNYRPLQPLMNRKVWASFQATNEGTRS
Sequence of hCA VI (P23280 18-308): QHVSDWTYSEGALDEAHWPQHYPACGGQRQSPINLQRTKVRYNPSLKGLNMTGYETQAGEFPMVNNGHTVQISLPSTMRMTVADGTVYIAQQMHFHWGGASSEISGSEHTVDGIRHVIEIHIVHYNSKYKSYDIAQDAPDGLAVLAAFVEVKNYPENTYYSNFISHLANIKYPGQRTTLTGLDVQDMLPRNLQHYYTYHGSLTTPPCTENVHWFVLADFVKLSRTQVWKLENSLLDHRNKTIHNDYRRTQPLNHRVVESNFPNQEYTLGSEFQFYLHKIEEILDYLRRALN
Sequence of hCA XIV (Q9ULX7 16-337): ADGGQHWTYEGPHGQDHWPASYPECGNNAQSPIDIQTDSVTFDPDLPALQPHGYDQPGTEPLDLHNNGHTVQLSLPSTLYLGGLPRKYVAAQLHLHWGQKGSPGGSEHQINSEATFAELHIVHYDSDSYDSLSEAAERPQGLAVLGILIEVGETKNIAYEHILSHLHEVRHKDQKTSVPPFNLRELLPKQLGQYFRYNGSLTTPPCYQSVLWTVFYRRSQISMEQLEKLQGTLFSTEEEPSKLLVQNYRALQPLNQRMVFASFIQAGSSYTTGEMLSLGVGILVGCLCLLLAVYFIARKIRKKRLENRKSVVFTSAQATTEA
Sequence of hCA XII (O43570 25-354): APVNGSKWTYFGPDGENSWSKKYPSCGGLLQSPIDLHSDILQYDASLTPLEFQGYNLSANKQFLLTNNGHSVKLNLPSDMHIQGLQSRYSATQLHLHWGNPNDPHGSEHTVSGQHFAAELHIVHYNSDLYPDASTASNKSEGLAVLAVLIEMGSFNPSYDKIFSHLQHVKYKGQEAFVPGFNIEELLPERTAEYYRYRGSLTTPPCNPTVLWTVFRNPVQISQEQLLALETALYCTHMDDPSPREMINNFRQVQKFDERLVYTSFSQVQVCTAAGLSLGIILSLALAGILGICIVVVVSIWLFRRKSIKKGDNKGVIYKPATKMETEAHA
Description for hCA III: (§1) An Applied Photophysics stopped-flow instrument has been used for assaying the CA-catalysed CO2 hydration activity[11]. […] The uncatalysed rates were determined in the same manner and subtracted from the total observed rates. Stock solutions of inhibitor (0.1 mM) were prepared in distilled-deionised water and dilutions up to 0.01 nM were done thereafter with the assay buffer. […] The inhibition constants were obtained by non-linear least-squares methods using PRISM 3 and the Cheng–Prusoff equation, as reported earlier[12]^,[13] and represent the mean from at least three different determinations.
Description for hCA IV: as §1
Description for hCA IX: as §1
Description for hCA VA: as §1
Description for hCA VB: as §1
Description for hCA VII: as §1
Description for hCA XIII: as §1
Description for hCA XIV: as §1

As to `N#Cc1cc(Cl)cc(Oc2c(Br)ccc(CC(=O)Nc3ccc(S(N)(=O)=O)cc3Cl)c2F)c1` [VM1500A], the inhibition constant (Ki) (usually a dissociation constant, usually derived from enzyme kinetics or from competition with a known ligand) at hCA VA is 537 nM; at hCA VB it was 221 nM; at hCA XIV, 15.4 nM; on hCA IX it was 72.1 nM; at hCA VI, 125 nM; on hCA XII it was 62.3 nM. Also, the Ki was 9.7 nM at hCA VII; 158 nM at hCA IV; 35.5 nM at hCA II; 514 nM at hCA I; more than 100000 nM on hCA III; 52.2 nM on hCA XIII. Moreover, the t1/2 of elimination in [1] (elimination of active form) is more than 120 h. Also, on hCA VII (from Ki values), the “selectivity towards hCA VII over the majority of other hCA isoforms” value was 1–2 orders of magnitude.
Regarding `CCC(=O)NS(=O)(=O)c1ccc(NC(=O)Cc2ccc(Br)c(Oc3cc(Cl)cc(C#N)c3)c2F)c(Cl)c1` [elsulfavirine], the inhibition constant (Ki) came to 4290 nM on hCA VA; 14200 nM at hCA VB; 1960 nM at hCA XIV; 6650 nM on hCA IX; 5670 nM at hCA VI; 2390 nM on hCA VII. Besides, the Ki on hCA IV is more than 100000 nM; at hCA II it was 12500 nM; on hCA I it was 52400 nM; on hCA III it was more than 100000 nM; at hCA XIII, 4820 nM. In addition, the “tolerability and side effects” value in the data set with HIV (patients) is “superior tolerability and fewer side effects”. The “virologic response (viral load and HIV RNA reduction)” value in the data set with HIV (treatment-naive patients) is listed as “comparable to that of the patients treated with efavirenz”. The “t1/2 of conversion to VM1500A” value in data set [1] (conversion of prodrug to active form) is given as approximately 2 h. For the same compound, on hCA IV (stopped flow CO2 hydrase assay), the “inhibition of hCA IV (in words)” value is “virtually no inhibition”. In addition, the “inhibition of hCA III (in words)” value against hCA III (stopped flow CO2 hydrase assay) is on record as “virtually no inhibition”.
